Patent publication US20240425513A1, “OXAZOLE, OXADIAZOLE, AND INDOLE DERIVATIVES FOR THE INHIBITION OF USP28” (Carmot Therapeutics, Inc., priority 2021, published 2024)

Molecular target: His6 USP28 (Homo sapiens (Human), UniProt Q96RU2)
Experiment: Ubiquitin-Rhodamine 110 assay to determine USP28 IC50
Assay type: biochemical
Settings: USP28 150 pM, Ub-Rho110 41 nM, 2 h pre-incubation with enzyme, fluorescence read
Description: Example 21. Ubiquitin-Rhodamine 110 Assay to Determine USP28 IC50
Each assay was performed in a final volume of 8 μl in assay buffer containing 10 mM HEPES pH 7.3 ((1 M, pH 7.3 solution, (VWR J848), 100 mM NaCl (5 M, Corning 46-032-CV), 0.01% Triton X-100 (Sigma #T8787), 3.5 mM DTT (1 M, Sigma #43819) and 0.00375% BSA (10%, Calbiochem, #126609)). The assay buffer pH was adjusted to 7.5 using 1 N NaOH (JT Baker, #5000-03). Stock compounds were stored at −80° C. as a 25 mM in DMSO solution along with their respective 20 point 2 fold serial dilutions. For the dose responses, stock compound plates were allowed to come to room temperature the day of the assay. […] of the serial dilution series were pre stamped into assay plates (Black, high base, medium binding, Greiner #782076) for a final top screening concentration of 125 μM (DMSO final concentration=0.5%). Enzyme (His6 USP28, BostonBiochem, #E-570) concentration and incubation times were optimized for the maximal signal to background while maintaining the initial velocity conditions at a fixed substrate concentration. The final concentration of the enzyme in the assay was 150 pM. Final substrate (Ub-Rhol10, Ubiquitin-Rhodamine 110, UBPBio, #M3020) concentration was 41 nM. 2 μl of 4× enzyme was added to assay plates (pre stamped with compound) and incubated for 2 h at room temperature. […] was subsequently added to the assay plates and incubated for 2 h at room temperature. Fluorescence was then read on the Envision (Excitation 485 nm and Emission at 535 nm, Perkin Elmer).

Chain of His6 USP28 (Q96RU2 whole entry): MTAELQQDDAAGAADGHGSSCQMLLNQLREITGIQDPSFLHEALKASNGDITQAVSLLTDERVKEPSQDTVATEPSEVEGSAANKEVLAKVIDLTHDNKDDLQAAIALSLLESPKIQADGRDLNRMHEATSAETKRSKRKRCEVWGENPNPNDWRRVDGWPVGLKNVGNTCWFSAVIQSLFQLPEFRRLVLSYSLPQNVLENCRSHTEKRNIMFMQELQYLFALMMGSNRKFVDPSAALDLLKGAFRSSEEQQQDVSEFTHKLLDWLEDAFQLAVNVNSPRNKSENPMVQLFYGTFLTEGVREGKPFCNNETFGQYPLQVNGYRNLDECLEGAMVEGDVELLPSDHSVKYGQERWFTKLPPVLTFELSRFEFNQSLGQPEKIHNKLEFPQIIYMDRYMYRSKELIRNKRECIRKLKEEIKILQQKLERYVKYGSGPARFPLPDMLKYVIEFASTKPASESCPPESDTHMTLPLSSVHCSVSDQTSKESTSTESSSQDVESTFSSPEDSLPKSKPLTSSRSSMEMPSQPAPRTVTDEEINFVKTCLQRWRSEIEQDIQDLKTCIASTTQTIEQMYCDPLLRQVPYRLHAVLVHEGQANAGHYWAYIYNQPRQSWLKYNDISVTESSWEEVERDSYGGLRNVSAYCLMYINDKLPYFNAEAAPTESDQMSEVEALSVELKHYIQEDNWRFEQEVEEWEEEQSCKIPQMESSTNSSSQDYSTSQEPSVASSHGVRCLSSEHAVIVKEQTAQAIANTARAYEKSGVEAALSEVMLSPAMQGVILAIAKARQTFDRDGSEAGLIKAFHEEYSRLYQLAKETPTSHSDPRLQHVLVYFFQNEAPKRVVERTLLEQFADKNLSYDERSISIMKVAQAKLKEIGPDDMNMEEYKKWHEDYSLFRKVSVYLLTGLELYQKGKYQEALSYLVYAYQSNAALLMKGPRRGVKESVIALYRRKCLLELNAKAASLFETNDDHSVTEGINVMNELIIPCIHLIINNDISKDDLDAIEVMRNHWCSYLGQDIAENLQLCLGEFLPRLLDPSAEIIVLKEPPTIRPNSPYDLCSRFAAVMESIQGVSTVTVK

Structure (SMILES) | IC50 [µM]
Cc1oc(Cc2cccc(Cl)c2)nc1-c1ccc(OCc2ccc(C(=O)N(C)C)cc2)cc1 [Compound 22, 4-((4-(2-(3-Chlorobenzyl)-5-methyloxazol-4-yl)phenoxy)methyl)-N,N-dimethylbenzamide] | < 0.05
Cc1oc(Cc2cccc(Cl)c2)nc1-c1ccc(COc2ccc(C(=O)N3CCC(Cc4ncc[nH]4)CC3)cc2)cc1 [Compound 43, (4-((1H-Imidazol-2-yl)methyl)piperidin-1-yl)(4-((4-(2-(3-chlorobenzyl)-5-methyloxazol-4-yl)benzyl)oxy)phenyl)methanone] | < 0.05
C[C@@H]1C[C@@H](NC(=O)COc2ccc(-c3nc(Cc4cccc(Cl)c4)no3)cc2)CN1C#N [Compound 3, 2-(4-(3-(3-Chlorobenzyl)-1,2,4-oxadiazol-5-yl)phenoxy)-N-((3R,5R)-1-cyano-5-methylpyrrolidin-3-yl)acetamide] | 0.05 to 0.5
C[C@@H]1C[C@@H](NC(=O)COc2ccc(-c3nc(Cc4cccc(C(F)(F)F)c4)no3)cc2)CN1C#N [Compound 6, N-[(3R,5R)-1-Cyano-5-methylpyrrolidin-3-y1]-2-[4-(3-{[3-(trifluoromethyl)phenyl]methyl}-1,2,4-oxadiazol-5-y1)phenoxy]acetamide] | 0.05 to 0.5
C[C@@H]1C[C@@H](NC(=O)NCc2ccc(-c3nc(Cc4cccc(Cl)c4)no3)cc2)CN1C#N [Compound 10, 1-(4-(3-(3-Chlorobenzyl)-1,2,4-oxadiazol-5-yl)benzyl)-3-((3R,5R)-1-cyano-5-methylpyrrolidin-3-yl)urea] | 0.05 to 0.5
C[C@@H]1C[C@@H](NC(=O)COc2ccc(-c3nc(Cc4cccc(C#N)c4)no3)cc2)CN1C#N [Compound 8, N-((3R,5R)-1-Cyano-5-methylpyrrolidin-3-yl)-2-(4-(3-(3-cyanobenzyl)-1,2,4-oxadiazol-5-yl)phenoxy)acetamide] | 0.5 to 1
C[C@@H]1C[C@@H](NC(=O)/C=C/c2ccc(-c3nc(Cc4cccc(Cl)c4)no3)cc2)CN1C#N [Compound 5, (E)-3-(4-(3-(3-Chlorobenzyl)-1,2,4-oxadiazol-5-yl)phenyl)-N-((3R,5R)-1-cyano-5-methylpyrrolidin-3-yl)acrylamide] | 0.05 to 0.5
C[C@@H]1C[C@@H](NC(=O)COc2ccc(-c3nc(Cc4ccccc4)no3)cc2)CN1C#N [Compound 2, 2-[4-(3-Benzyl-1,2,4-oxadiazol-5-yl)phenoxy]-N-[(3R,5R)-1-cyano-5-methylpyrrolidin-3-yl]acetamide] | > 1
Cc1oc(Cc2cccc(Cl)c2)nc1-c1ccc(OCc2ccc(C(=O)N3CCC(N)CC3)cn2)cc1 [Compound 38, 1-{6-[(4-{2-[(3-Chlorophenyl)methyl]-5-methyl-1,3-oxazol-4-yl}phenoxy)methyl]pyridine-3-carbonyl}piperidin-4-amine] | < 0.05
C/C(=C\c1ccc(-c2nc(Cc3cccc(Cl)c3)no2)cc1)C(=O)N[C@@H]1C[C@@H](C)N(C#N)C1 [Compound 13, (E)-3-(4-(3-(3-chlorobenzyl)-1,2,4-oxadiazol-5-yl)phenyl)-N-((3R,5R)-1-cyano-5-methylpyrrolidin-3-yl)-2-methylacrylamide] | 0.5 to 1
Cc1oc(Cc2cccc(Cl)c2)nc1-c1ccc(OCc2cc(C(=O)N(C)C)n(C)n2)cc1 [Compound 23, 3-((4-(2-(3-Chlorobenzyl)-5-methyloxazol-4-yl)phenoxy)methyl)-N,N,1-trimethyl-1H-pyrazole-5-carboxamide] | 0.05 to 0.5
CN[C@@H]1CCN(C(=O)c2ccc(COc3ccc(-c4nc(Cc5cccc(Cl)c5)oc4C)cc3)nc2)C1 [Compound 36, (3R)-1-{6-[(4-{2-[(3-Chlorophenyl)methyl]-5-methyl-1,3-oxazol-4-yl}phenoxy)methyl]pyridine-3-carbonyl}-N-methylpyrrolidin-3-amine] | < 0.05
Cc1oc(Cc2cccc(Cl)c2)nc1-c1ccc(OCc2ccc(C(=O)N(C)C)cc2COCCO)cc1 [Compound 33, 4-((4-(2-(3-Chlorobenzyl)-5-methyloxazol-4-yl)phenoxy)methyl)-3-((2-hydroxyethoxy)methyl)-N,N-dimethylbenzamide] | < 0.05
Cc1oc(Cc2cccc(Cl)c2)nc1-c1ccc(COc2ccc(C(=O)N(C)CCN3CCCNC3=O)cc2)cc1 [Compound 44, 4-[(4-{2-[(3-Chlorophenyl)methyl]-5-methyl-1,3-oxazol-4-yl}phenyl)methoxy]-N-methyl-N-[2-(2-oxo-1,3-diazinan-1-yl)ethyl]benzamide] | < 0.05
CN[C@@H]1CCCN(C(=O)c2ccc(COc3ccc(-c4nc(Cc5cccc(Cl)c5)oc4C)cc3)nc2)C1 [Compound 41, (3R)-1-{6-[(4-{2-[(3-Chlorophenyl)methyl]-5-methyl-1,3-oxazol-4-yl}phenoxy)methyl]pyridine-3-carbonyl}-N-methylpiperidin-3-amine] | < 0.05
CN[C@H]1CCCN(C(=O)c2ccc(COc3ccc(-c4nc(Cc5cccc(Cl)c5)oc4C)cc3)nc2)C1 [Compound 40, (3S)-1-{6-[(4-{2-[(3-Chlorophenyl)methyl]-5-methyl-1,3-oxazol-4-yl}phenoxy)methyl]pyridine-3-carbonyl}-N-methylpiperidin-3-amine] | < 0.05
Cc1oc(Cc2cccc(Cl)c2)nc1-c1ccc(OCc2ccc(C(=O)N3CC4CCC(C3)N4)cn2)cc1 [Compound 29, (3,8-Diazabicyclo[3.2.1]octan-3-yl)(6-((4-(2-(3-chlorobenzyl)-5-methyloxazol-4-yl)phenoxy)methyl)pyridin-3-yl)methanone] | < 0.05
Cc1cccc(Cc2noc(-c3ccc(OCC(=O)N[C@@H]4C[C@@H](C)N(C#N)C4)cc3)n2)c1 [Compound 9, N-[(3R,5R)-1-Cyano-5-methylpyrrolidin-3-yl]-2-(4-{3-[(3-methylphenyl)methyl]-1,2,4-oxadiazol-5-yl}phenoxy)acetamide] | 0.05 to 0.5
Cc1oc(Cc2cccc(Cl)c2)nc1-c1ccc(/C=C/C(=O)N[C@H]2CN[C@H](C)C2)cc1 [Compound 15, (E)-3-(4-(2-(3-Chlorobenzyl)-5-methyloxazol-4-yl)phenyl)-N-((3R,5R)-5-methylpyrrolidin-3-yl)acrylamide] | 0.05 to 0.5
Cc1oc(Cc2cccc(Cl)c2)nc1-c1ccc(OCc2ccc(C(=O)N3CCC[C@@H](C(=O)O)C3)cn2)cc1 [Compound 32, (3R)-1-{6-[(4-{2-[(3-Chlorophenyl)methyl]-5-methyl-1,3-oxazol-4-yl}phenoxy)methyl]pyridine-3-carbonyl}piperidine-3-carboxylic acid] | < 0.05
Cc1oc(Cc2cccc(Cl)c2)nc1-c1ccc(OCc2cnc(C(=O)N(C)C)cn2)cc1 [Compound 28, 5-[(4-{2-[(3-Chlorophenyl)methyl]-5-methyl-1,3-oxazol-4-yl}phenoxy)methyl]-N,N-dimethylpyrazine-2-carboxamide] | < 0.05
Cc1ccc(C(=O)NCc2ccc(-c3nc(Cc4cccc(Cl)c4)no3)cc2)cn1 [Compound 19, N-[(4-{3-[(3-Chlorophenyl)methyl]-1,2,4-oxadiazol-5-yl}phenyl)methyl]-6-methylpyridine-3-carboxamide] | 0.5 to 1
N#CN1C[C@H](NC(=O)COc2ccc(-c3nc(Cc4ccccc4)no3)cc2)C[C@H]1CF [Compound 1, 2-[4-(3-Benzyl-1,2,4-oxadiazol-5-yl)phenoxy]-N-[(3R,5S)-1-cyano-5-(fluoromethyl)pyrrolidin-3-yl]acetamide] | > 1
